Data from paper PMC4139942 (Scientific Reports, 2014).

Experiments:
amylin aggregates = amylin aggregates (Homo sapiens, UniProt P10997); assay type: binding
AD brain samples = details: cited from earlier work

Chain of amylin aggregates (P10997 34-70): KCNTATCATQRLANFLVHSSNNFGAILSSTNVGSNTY

Ki (amylin aggregates): 501 ± 40.8 nM
SMILES: CNc1ccc(/C=C/c2ccc(OCCOCCOCCF)nc2)cc1 [AV-45, (E)-4-(2-(6-(2-(2-(2-fluoroethoxy)ethoxy)ethoxy)pyridin-3-yl)vinyl)-N-methylaniline]
Ki (AD brain samples): 6.7 nM
